# Data from patent US9409952B2, “Peptide-compound cyclization method” (Chugai Seiyaku Kabushiki Kaisha, priority 2011, dated 2016).
# Starred links: 1 amine or outer side, 2 acyl side, 3 side chain; linkers in the order of their positions; H or OH if unused. Positions of bridges follow the written chain, without caps; N, C: chain ends. Non-standard residues stand in square brackets, D forms with d. Residues, ends and D or L forms follow the SMILES beside them. *: point of attachment. hhPhe = N[C@@H](CCCc1ccccc1)C(=O)O; NMeF = CN[C@@H](Cc1ccccc1)C(=O)O; NMeGABA = CN(CCCC(=O)[*:2])[*:1]; hPhe = N[C@@H](CCc1ccccc1)C(=O)O; NMeL = CN[C@@H](CC(C)C)C(=O)O; NMeV = CN[C@H](C(=O)O)C(C)C; NMeA = CN[C@@H](C)C(=O)O; Piperidide = C1CCN(*)CC1; dNMeA = CN[C@H](C)C(=O)O; Sar = CNCC(=O)O; tBu = CC(C)(C)*
# How the values were obtained:
# [1] = Metabolic stability in human hepatic microsome; format: in vitro ADME; conditions: microsomes, pH 7.4; human hepatic microsome, NADPH(+); read-out: CL NADPH(+)
# [2] = PAMPA (parallel artificial membrane permeability assay); format: in vitro ADME; conditions: PAMPA; membrane permeation rate (Pe); 50 mM MOPSO buffer pH 6.5 with 5.0% glycocholic acid, 37° C., 18 hours; read-out: iPAMPA Pe
# Outline: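 Artificial membrane was 10% (w/v) egg lecithin plus 0.5% (w/v) cholesterol in dodecane on a PVDF filter. A 10 mM DMSO stock was added at 0.5% (v/v) to donor buffer (50 mM MOPSO, pH 6.5, 5.0% glycocholic acid). After 18 h at 37 °C, LC/MS or LC/UV gave donor and acceptor levels for Pe.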
SMILES,microsomal CLint at 1 uM [1] [µL/min/mg],"Papp at 18 hours, 50 µM [2] [×10⁻⁶ cm/s]"
CC(C)C[C@@H]1NC(=O)[C@H](CC(C)C)N(C)C(=O)[C@H]([C@@H](C)O)NC(=O)CCCN(C)C(=O)C[C@@H](C(=O)N2CCCCC2)NC(=O)[C@H](COC(C)(C)C)NC(=O)[C@H](Cc2ccccc2)N(C)C1=O [DP-715] ([NMeGABA]T[NMeL]L[NMeF]S(tBu)D-Piperidide; lactam N-7),134,24
CC(C)C[C@@H]1NC(=O)CCCN(C)C(=O)C[C@@H](C(=O)N2CCCCC2)NC(=O)[C@H](Cc2ccccc2)N(C)C(=O)[C@H]([C@@H](C)O)NC(=O)[C@H](CC(C)C)N(C)C(=O)[C@H](COC(C)(C)C)NC1=O [DP-716] ([NMeGABA]LS(tBu)[NMeL]T[NMeF]D-Piperidide; lactam N-7),133,21
CC(C)C[C@H]1C(=O)N[C@@H]([C@@H](C)O)C(=O)N(C)[C@@H](CC(C)C)C(=O)N(C)CC(=O)N(C)[C@@H](Cc2ccccc2)C(=O)N[C@@H](COC(C)(C)C)C(=O)N[C@H](C(=O)N2CCCCC2)CC(=O)N1C [DP-717] ([NMeL]T[NMeL][Sar][NMeF]S(tBu)D-Piperidide; lactam N-7),101,21
CC(C)C[C@@H]1NC(=O)C[C@@H](C(=O)N2CCCCC2)NC(=O)[C@H](COC(C)(C)C)NC(=O)[C@H]([C@@H](C)O)NC(=O)[C@H](Cc2ccccc2)N(C)C(=O)[C@H](CC(C)C)N(C)C(=O)CN(C)C1=O [DP-718] (L[Sar][NMeL][NMeF]TS(tBu)D-Piperidide; lactam N-7),99,17
CC(C)C[C@H]1C(=O)N(C)[C@@H](CC(C)C)C(=O)N(C)[C@@H](Cc2ccccc2)C(=O)N[C@H](C(=O)N2CCCCC2)CC(=O)N[C@@H](C(C)C)C(=O)N(C)CC(=O)N[C@@H]([C@@H](C)O)C(=O)N1C [DP-719] (V[Sar]T[NMeL][NMeL][NMeF]D-Piperidide; lactam N-7),218,26
CC(C)C[C@@H]1NC(=O)[C@H]([C@@H](C)O)NC(=O)[C@H](CC(C)C)N(C)C(=O)CN(C)C(=O)[C@H](Cc2ccccc2)N(C)C(=O)[C@H](C(C)C)NC(=O)C[C@@H](C(=O)N2CCCCC2)NC1=O [DP-720] (V[NMeF][Sar][NMeL]TLD-Piperidide; lactam N-7),62,16
CC(C)C[C@H]1C(=O)N(C)[C@@H](CC(C)C)C(=O)N[C@H](C(=O)N2CCCCC2)CC(=O)N[C@H](C)C(=O)N(C)[C@@H](Cc2ccccc2)C(=O)N(C)[C@@H](CC(C)C)C(=O)N[C@@H]([C@@H](C)O)C(=O)N1C [DP-721] ([dA][NMeF][NMeL]T[NMeL][NMeL]D-Piperidide; lactam N-7),915,49
CC(C)C[C@@H]1NC(=O)[C@H]([C@@H](C)O)NC(=O)[C@H](CC(C)C)N(C)C(=O)[C@H](Cc2ccccc2)N(C)C(=O)[C@H](CC(C)C)N(C)C(=O)C[C@@H](C(=O)N2CCCCC2)NC(=O)[C@H](CC(C)C)N(C)C1=O [DP-722] ([NMeL][NMeF][NMeL]TL[NMeL]D-Piperidide; lactam N-7),311,45
CC(C)C[C@@H]1NC(=O)[C@H]([C@@H](C)O)NC(=O)[C@H](CC(C)C)N(C)C(=O)CN(C)C(=O)[C@H](Cc2ccccc2)N(C)C(=O)[C@H](CC(C)C)NC(=O)C[C@@H](C(=O)N2CCCCC2)NC1=O [DP-723] (L[NMeF][Sar][NMeL]TLD-Piperidide; lactam N-7),154,26
CC(C)C[C@H]1C(=O)N[C@@H](COC(C)(C)C)C(=O)N(C)CC(=O)N[C@@H]([C@@H](C)O)C(=O)N[C@H](C(=O)N2CCCCC2)CC(=O)N[C@@H](C(C)C)C(=O)N(C)[C@@H](Cc2ccccc2)C(=O)N1C [DP-724] (V[NMeF][NMeL]S(tBu)[Sar]TD-Piperidide; lactam N-7),160,20
CC(C)C[C@H]1C(=O)N[C@H](C(=O)N2CCCCC2)CC(=O)N(C)[C@H](C)C(=O)N(C)[C@@H](CC(C)C)C(=O)N[C@@H]([C@@H](C)O)C(=O)N(C)[C@@H](CC(C)C)C(=O)N[C@@H](COC(C)(C)C)C(=O)N1C [DP-725] ([dNMeA][NMeL]T[NMeL]S(tBu)[NMeL]D-Piperidide; lactam N-7),138,35
CC(C)C[C@@H]1NC(=O)C[C@@H](C(=O)N2CCCCC2)NC(=O)[C@H](CC(C)C)N(C)C(=O)[C@H](CC(C)C)NC(=O)[C@H](CC(C)C)N(C)C(=O)[C@H]([C@@H](C)O)NC(=O)CN(C)C1=O [DP-726] (L[Sar]T[NMeL]L[NMeL]D-Piperidide; lactam N-7),75,17
CC(C)C[C@@H]1NC(=O)[C@H](C(C)C)NC(=O)C[C@@H](C(=O)N2CCCCC2)NC(=O)[C@H]([C@@H](C)O)NC(=O)CN(C)C(=O)[C@H](CC(C)C)N(C)C(=O)[C@H](CC(C)C)N(C)C1=O [DP-727] (VL[NMeL][NMeL][Sar]TD-Piperidide; lactam N-7),59,16
CC[C@H](C)[C@@H]1NC(=O)[C@H](CC(C)C)NC(=O)[C@H](C(C)C)NC(=O)[C@H](CC(C)C)N(C)C(=O)[C@H](CC(C)C)NC(=O)[C@H](CCc2ccccc2)NC(=O)[C@H]([C@@H](C)O)NC(=O)[C@H](C)N(C)C(=O)[C@H](CC(C)C)NC(=O)[C@H](C)N(C)C(=O)C[C@@H](C(=O)N2CCCCC2)NC1=O [DP-728] ([NMeA]L[NMeA]T[hPhe]L[NMeL]VLID-Piperidide; lactam N-11),42,6.5
CC[C@H](C)[C@@H]1NC(=O)[C@H](CC(C)C)NC(=O)[C@H](C(C)C)NC(=O)[C@H](CC(C)C)N(C)C(=O)[C@H](CC(C)C)NC(=O)[C@H](CCCc2ccccc2)NC(=O)[C@H]([C@@H](C)O)NC(=O)[C@H](C)N(C)C(=O)[C@H](CC(C)C)NC(=O)[C@H](C)N(C)C(=O)C[C@@H](C(=O)N2CCCCC2)NC1=O [DP-729] ([NMeA]L[NMeA]T[hhPhe]L[NMeL]VLID-Piperidide; lactam N-11),54,4.7
CC[C@H](C)[C@@H]1NC(=O)[C@H](Cc2ccccc2)N(C)C(=O)[C@H](CCCc2ccccc2)NC(=O)[C@H](C(C)C)N(C)C(=O)[C@H](CC(C)C)N(C)C(=O)[C@H](CC(C)C)NC(=O)[C@@H](C)NC(=O)C[C@@H](C(=O)N2CCCCC2)NC(=O)[C@H]([C@@H](C)O)NC(=O)[C@H](C)NC(=O)[C@H](C)N(C)C1=O [DP-731] ([dA]L[NMeL][NMeV][hhPhe][NMeF]I[NMeA]ATD-Piperidide; lactam N-11),53,48
CC(C)C[C@@H]1NC(=O)[C@@H]2CCCN2C(=O)[C@H](Cc2ccccc2)N(C)C(=O)[C@H](C)N(C)C(=O)[C@H]([C@@H](C)O)NC(=O)[C@@H](C(C)C)NC(=O)C[C@@H](C(=O)N2CCCCC2)NC(=O)[C@H](CC(C)C)N(C)C(=O)[C@H](C)N(C)C(=O)[C@H](CCc2ccccc2)NC(=O)[C@H](C(C)C)N(C)C1=O [DP-732] ([dV]T[NMeA][NMeF]PL[NMeV][hPhe][NMeA][NMeL]D-Piperidide; lactam N-11),57,26
CC(C)C[C@@H]1NC(=O)[C@@H]2CCCN2C(=O)[C@H](Cc2ccccc2)N(C)C(=O)[C@H](C)N(C)C(=O)[C@H]([C@@H](C)O)NC(=O)[C@@H](C(C)C)NC(=O)C[C@@H](C(=O)N2CCCCC2)NC(=O)[C@H](CC(C)C)N(C)C(=O)[C@H](C)N(C)C(=O)[C@H](CCCc2ccccc2)NC(=O)[C@H](C(C)C)N(C)C1=O [DP-733] ([dV]T[NMeA][NMeF]PL[NMeV][hhPhe][NMeA][NMeL]D-Piperidide; lactam N-11),97,26
CC(C)C[C@H]1C(=O)N(C)[C@@H](C(C)C)C(=O)N(C)[C@@H](C)C(=O)N[C@@H](CCc2ccccc2)C(=O)N(C)[C@@H](C)C(=O)N[C@H](C(=O)N2CCCCC2)CC(=O)N(C)[C@@H](C)C(=O)N[C@@H]([C@@H](C)O)C(=O)N(C)[C@@H](C)C(=O)N[C@@H](C)C(=O)N(C)[C@@H](Cc2ccccc2)C(=O)N1C [DP-734] ([NMeA]T[NMeA]A[NMeF][NMeL][NMeV][NMeA][hPhe][NMeA]D-Piperidide; lactam N-11),84,16
CC(C)C[C@H]1C(=O)N(C)[C@@H](C(C)C)C(=O)N(C)[C@@H](C)C(=O)N[C@@H](CCCc2ccccc2)C(=O)N(C)[C@@H](C)C(=O)N[C@H](C(=O)N2CCCCC2)CC(=O)N(C)[C@@H](C)C(=O)N[C@@H]([C@@H](C)O)C(=O)N(C)[C@@H](C)C(=O)N[C@@H](C)C(=O)N(C)[C@@H](Cc2ccccc2)C(=O)N1C [DP-735] ([NMeA]T[NMeA]A[NMeF][NMeL][NMeV][NMeA][hhPhe][NMeA]D-Piperidide; lactam N-11),88,21
CC(C)C[C@@H]1NC(=O)[C@H](C(C)C)N(C)C(=O)[C@H](CCc2ccccc2)NC(=O)CN(C)C(=O)[C@H]([C@@H](C)O)NC(=O)[C@H](C)N(C)C(=O)[C@H](CC(C)C)N(C)C(=O)[C@@H](C(C)C)NC(=O)C[C@@H](C(=O)N2CCCCC2)NC(=O)[C@H](C)NC(=O)[C@H](CC(C)C)N(C)C1=O [DP-736] ([dV][NMeL][NMeA]T[Sar][hPhe][NMeV]L[NMeL]AD-Piperidide; lactam N-11),47,27
CC(C)C[C@@H]1NC(=O)[C@H](C(C)C)N(C)C(=O)[C@H](CCCc2ccccc2)NC(=O)CN(C)C(=O)[C@H]([C@@H](C)O)NC(=O)[C@H](C)N(C)C(=O)[C@H](CC(C)C)N(C)C(=O)[C@@H](C(C)C)NC(=O)C[C@@H](C(=O)N2CCCCC2)NC(=O)[C@H](C)NC(=O)[C@H](CC(C)C)N(C)C1=O [DP-737] ([dV][NMeL][NMeA]T[Sar][hhPhe][NMeV]L[NMeL]AD-Piperidide; lactam N-11),45,30
